The source of these data is BindingDB's records for doi:10.1016/s0960-894x(02)00385-2 (National Institute of Diabetes and Digestive and Kidney …, 2002).

The test has as its target T1, Mycothiol S-conjugate amidase (Mycobacterium tuberculosis (strain ATCC 25618 / H37Rv), UniProt P9WJN1).
T1 sequence (P9WJN1 whole entry): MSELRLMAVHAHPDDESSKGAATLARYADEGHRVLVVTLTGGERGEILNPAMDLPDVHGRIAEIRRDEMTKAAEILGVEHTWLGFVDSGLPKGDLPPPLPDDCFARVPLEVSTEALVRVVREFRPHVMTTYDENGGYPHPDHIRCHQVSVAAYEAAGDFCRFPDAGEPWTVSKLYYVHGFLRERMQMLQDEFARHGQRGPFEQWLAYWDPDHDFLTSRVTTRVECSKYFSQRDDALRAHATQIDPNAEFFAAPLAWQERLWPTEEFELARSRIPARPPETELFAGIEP
Kind of test: ChEBML_140808. An excerpt: Inhibition of Mycothiol -S-conjugate amidase (MCA) from mycobacterium tuberculosis

Turning to `N=C(N)CCCCNC(=O)C(Cc1cc(Br)c(OCCCN)c(Br)c1)N=O` (configuration not stated) [3-[4-(3-Amino-propoxy)-3,5-dibromo-phenyl]-N-(4-carbamimidoyl-butyl)-2-[(E)-hydroxyimino]-propionamide], the half-maximal inhibitory concentration (IC50) worked out at 2800 nM.

Turning to `O=NC(Cc1ccc(O)c(Br)c1)C(=O)NCCSSCCNC(=O)C(Cc1ccc(O)c(Br)c1)N=O` (configuration not stated) [3-(3-bromo-4-hydroxy-phenyl)-N-[2-(2-{3-(3-bromo-4-hydroxy-phenyl)-2-[hydroxyimino]-propionylamino}-ethyldisulfanyl)-ethyl]-2-[hydroxyimino]-propionamide], the concentration for half-maximal inhibition (IC50) was 2800 nM.
